Several values for one entry are separate records, joined by “and”; a condition that tells them apart may be missing. Equal values may be shown once.
Key:
[1] = system: estrogen receptor β (ERβ); experiment: Western blot of FLAG-ERβ levels in Hs578T-ERβLuc Dox-inducible cells; assay type: cell-based, human; details: Hs578T-ERβLuc Dox-inducible line, 10 μM, 5 days, Western blot (anti-FLAG)
Method: FIGS. 2A, 2B, and 2C together depict the biological activity of the subject compounds on estrogen receptor β (ERβ) levels in human breast cancer cells.
The biological activity of these four analogs were then compared with the parent compound Dip G following our previous protocol (Zhao et al., supra). See FIGS. 1A, 1B, 1C, 2A, 2B, and 2C. Cells were treated with each compound at 10 μM concentration in order to evaluate how well each modified the stability of ERα and ERβ.
MCF7 cells were treated with Dip G and analogs for 24 hours before harvesting. Hs578T-tet-on-ERβ cells (ATCC HTB-126; American Type Culture Collection, Manassas, Va.) were treated with doxycycline for 24 hours to induce ERβ expression. Then the cells were treated with compounds for 5 days before harvesting. 15 μg of total cell lysates were resolved on SDS-PAGE and Western blot analyses were performed as previously described using ERα antibody (HC-20, Santa Cruz Biotechnology, Inc., Dallas, Tex.) and anti-FLAG antibody (F7425, Sigma-Aldrich Co., LLC, St. Louis, Mo.) for ERβ.^3

[2] = patients, high dose administration of fulvestrant (500 mg); cited from earlier work

melting point [°C]	SMILES	ERβ stability [1]	peak plasma concentration [2]
> 260	O=C1c2c(O)cc(O)cc2-c2c(-c3ccccc3)oc3cc(O)cc1c23 [Compound 14]	moderately stabilized	
	C[C@]12CC[C@@H]3c4ccc(O)cc4C[C@@H](CCCCCCCCC[S+]([O-])CCCC(F)(F)C(F)(F)F)[C@H]3[C@@H]1CC[C@@H]2O (stereo partly drawn) [fulvestrant]		~20 ng/ml and ~30 nM

From patent US10508092B2, “Synthesis of novel analogs of diptoindonesin G, compounds formed thereby, and pharmaceutical compositions containing them” (Wisconsin Alumni Research Foundation, priority 2016, dated 2019)
